Results taken from US20230310540A1, “PEPTIDE COMPOSITIONS AND METHODS OF USE THEREOF” (priority 2020, published 2023).
In brackets after ≈: the same amount, converted by molar mass. Square brackets hold non-standard residues; d marks the D form. Peptide text beside a SMILES is read from it. βAla = NCCC(=O)O

Tests used:
S. aureus = assay type: cell-based; settings: for MIC in Broth Dilution, S. Aureus, RBC −: absence of RBC; for MIC in Broth Dilution, S. Aureus, RBC − / MIC in Broth Dilution, S. Aureus, RBC +: Table 3; for MIC, S. aureus, No RBC / MIC, S. aureus, 10^9 cells/ml RBC: Table 2; for MIC in Broth Dilution, S. Aureus, RBC +: presence of 1×10^9 human RBC/ml; for MIC, S. aureus, 10^9 cells/ml RBC: with 10^9 human RBC/ml
Description: (§1) Peptide variants of D-CONGA (SEQ ID NO: 1) were tested for activity against E. coli, K. pneumoniae, and S. aureus. Minimum Inhibitory Concentrations (MIC) were measured in 96-well plates by broth dilution. Peptides were serially diluted in buffer or in buffer containing 1×10^9 human RBC/ml. Following 1 hr. incubation, bacteria in growth media were added and the plates were incubated overnight at 37° C. Sterilized, wells were identified to determine MIC. Hemolysis was measured by incubating 1×10^8 human RBCs with serially diluted peptide for 30 minutes followed by centrifugation of the cells and measurements of the released hemoglobin in the supernatant by absorbance at 410 nm. The value for 100% hemolysis was established by treatment with the detergent Triton-X100. Toxicity was measured by incubating serially diluted peptide with WI38 human fibroblast cells in the presence of SYTOX Green, a DNA binding dye that reports on cell death by membrane permeabilization. The peptide concentration that gives 50% cytotoxicity by relative SYTOX Green fluorescence, is denoted EC50.
(§2) Antimicrobial peptides and conventional antibiotics were prepared at 5-times the final concentration needed in 0.025% acetic acid. The antibiotics were serially diluted by a factor of 2:3 horizontally across 96-well plates from Corning, 25 μL per well. One column was reserved for controls. For the assays performed in the presence of RBC, type O+ human RBCs at 0 or 2.5×10^9 cells/mL were added in 50 μL aliquots to all wells. Following a 30-minute incubation, 50 μL of TSB, inoculated with 5×10^5 CFU/mL, was added to all wells, and plates were incubated overnight at 37° C. Following overnight incubation at 37° C., the OD600 was measured (values of less than 0.1 were considered sterilized). To assess bacterial growth in the assays with RBC, the OD600 was measured after a second day inoculation with 10 μL of solution from the original plate added to 100 μL of sterile TSB followed by overnight incubation.
(§3) MIC values were reported in μM peptide against gram-negative E. coli (EC), P. aeruginosa (PA), and gram-positive S. aureus (SA). The two columns under each organism are for assays performed in the absence (−) and presence (+) of 1×10^9 human RBC/ml. “>30” means that sterilization was not observed at 30 μM, the highest concentration tested. The column marked “hemolysis” is the fractional hemolysis of 1×10^8 human RBC/ml at 100 μM peptide determined from measurements of serially diluted peptide, starting from 100 μM. The column marked “EC 50” contains the concentration of peptide that kills 50% of WI-38 human fibroblast cells assayed by entry of SYTOX™ Green DNA binding dye.

E. coli = assay type: cell-based; settings: for MIC, E. coli, No RBC / MIC, E. coli, 10^9 cells/ml RBC: Table 2; for MIC, E. coli, 10^9 cells/ml RBC: with 10^9 human RBC/ml
Description: as §1, §2, §3

K. pneumoniae = assay type: cell-based; settings: with 10^9 human RBC/ml; Table 2
Description: as §1, §2, §3

human RBCs = experiment: Hemolysis of human RBCs; assay type: cell-based
Description: as §1
Peptide was serially diluted in PBS starting at a concentration of 100 μM. The final volume of peptide in each well was 50 μL. To each well, 50 μL of RBCs in PBS at 2×10^8 cells/mL was added. As a positive lysis control, 1% triton was used. The mixtures were incubated at 37° C. for 1 hour, after which they were centrifuged at 1000 g for 5 minutes. After centrifugation, 10 μL of supernatant was transferred to 90 μL of DI H2O in a fresh 96-well plate. The absorbance of released hemoglobin at 410 nm was recorded and the fractional hemolysis was calculated based on the 100% and 0% lysis controls.
as §3

[1] = tested on: Klebsiella pneumoniae clinical isolates; settings: clinical isolates
[2] = tested on: WI-38 human fibroblast cells; experiment: SYTOX Green cytotoxicity assay; assay type: cell-based; settings: for EC50: 50% cytotoxicity by SYTOX Green, Table 2, read-out: EC50, μM (WI-38 Cells)
Description: Peptide variants of D-CONGA (SEQ ID NO: 1) were tested for activity against E. coli, K. pneumoniae, and S. aureus. Minimum Inhibitory Concentrations (MIC) were measured in 96-well plates by broth dilution. […] Following 1 hr. incubation, bacteria in growth media were added and the plates were incubated overnight at 37° C. Sterilized, wells were identified to determine MIC. […] The value for 100% hemolysis was established by treatment with the detergent Triton-X100. Toxicity was measured by incubating serially diluted peptide with WI38 human fibroblast cells in the presence of SYTOX Green, a DNA binding dye that reports on cell death by membrane permeabilization. The peptide concentration that gives 50% cytotoxicity by relative SYTOX Green fluorescence, is denoted EC50. WI-38 cells were grown to confluency in T-75 flasks in complete DMEM (with 15% FBS, plus antibiotics and non-essential amino acids). The day prior to cytotoxicity experiments, cells were trypsinized, removed from the flask, and pelleted. Cells were resuspended in complete DMEM and the cell count was obtained using a cell counter. The cells were then seeded at a density of 10,000 cells/well in a 96-well tissue-culture plate. […] To perform the cytotoxicity assay, media from wells of overnight cell culture plate was removed, washed once with PBS and treated with 50 μl of the peptide and SYTOX™ Green mixture. The plate was read for fluorescence, every 5 minutes, for an hour at the excitation wavelength of 385 nm and emission wavelength of 530 nm. MelP5, a potent MPP, that causes 100% SYTOX™ Green entry into the cells was used as a positive control to normalize the cytotoxicity of peptides tested. MIC values were reported in μM peptide against gram-negative E. coli (EC), P. aeruginosa (PA), and gram-positive S. aureus (SA). […] The column marked “EC 50” contains the concentration of peptide that kills 50% of WI-38 human fibroblast cells assayed by entry of SYTOX™ Green DNA binding dye.

SMILES: CC(C)C[C@@H](NC(=O)[C@@H](CCC(N)=O)NC(=O)[C@@H](CCCNC(=N)N)NC(=O)[C@@H](CCCNC(=N)N)NC(=O)[C@@H](C)NC(=O)[C@@H](Cc1c[nH]c2ccccc12)NC(=O)[C@@H](CCCNC(=N)N)NC(=O)[C@H](N)CCCNC(=N)N)C(=O)N[C@H](C)C(=O)N[C@H](Cc1ccccc1)C(=O)N[C@H](C)C(=O)N[C@H](Cc1ccccc1)C(=O)N[C@H](CCCNC(=N)N)C(=O)N[C@H](CCCNC(=N)N)C(N)=O [D-CONGA-Q7, rrwarrqlafafrr (All D)] (H-[dR][dR][dW][dA][dR][dR][dQ][dL][dA][dF][dA][dF][dR][dR]-NH2)
- MIC in Broth Dilution, S. Aureus, RBC − (S. aureus): 4.2 µM (≈ 7.93 µg/mL)
- MIC, S. aureus, No RBC (S. aureus): 4.2 µM (≈ 7.93 µg/mL)
- MIC in Broth Dilution, S. Aureus, RBC + (S. aureus): 3.6 µM
- MIC, S. aureus, 10^9 cells/ml RBC (S. aureus): 3.6 μM
- MIC in Broth Dilution, E. coli, RBC − (E. coli; absence of RBC, Table 3): 1 µM (≈ 1.89 µg/mL)
- MIC, E. coli, No RBC (E. coli): 1 µM (≈ 1.89 µg/mL)
- MIC in Broth Dilution, E. coli, RBC + (E. coli; presence of 1×10^9 human RBC/ml, Table 3): 1.7 µM
- MIC, E. coli, 10^9 cells/ml RBC (E. coli): 1.7 μM
- MIC, K. pneumoniae, 10^9 cells/ml RBC (K. pneumoniae): 1.5 μM
- Hemolysis at 100 μM (human RBCs): 0.07
- MIC [1]: 1.8 µM (≈ 3.4 µg/mL)
- EC50 against WI-38 cells relative to that of D-CONGA [2]: four times higher
- Toxicity against WI-38 cells (in words) [2]: lower cytotoxicity
- EC50 [2]: 418 µM

SMILES: CC(C)C[C@@H](NC(=O)CCNC(=O)[C@@H](CCCNC(=N)N)NC(=O)[C@@H](CCCNC(=N)N)NC(=O)[C@@H](C)NC(=O)[C@@H](Cc1c[nH]c2ccccc12)NC(=O)[C@@H](CCCNC(=N)N)NC(=O)[C@H](N)CCCNC(=N)N)C(=O)N[C@H](C)C(=O)N[C@H](Cc1ccccc1)C(=O)N[C@H](C)C(=O)N[C@H](Cc1ccccc1)C(=O)N[C@H](CCCNC(=N)N)C(=O)N[C@H](CCCNC(=N)N)C(N)=O [D-CONGA-βa7, rrwarr-βa-lafafrr (All D)] (H-[dR][dR][dW][dA][dR][dR][βAla][dL][dA][dF][dA][dF][dR][dR]-NH2)
- Hemolysis at 100 μM (human RBCs): 0.02
- Toxicity against WI-38 cells (in words) [2]: least toxic of the variants

SMILES: CC(C)C[C@@H](NC(=O)[C@@H](CCCNC(=N)N)NC(=O)[C@@H](CCCNC(=N)N)NC(=O)[C@@H](C)NC(=O)[C@@H](Cc1c[nH]c2ccccc12)NC(=O)[C@@H](CCCNC(=N)N)NC(=O)[C@H](N)CCCNC(=N)N)C(=O)N[C@H](C)C(=O)N[C@H](Cc1ccccc1)C(=O)N[C@H](C)C(=O)N[C@H](Cc1ccccc1)C(=O)N[C@H](CCCNC(=N)N)C(=O)N[C@H](CCCNC(=N)N)C(N)=O [D-CONGA, rrwarrlafafrr (All D), reference compound] (H-[dR][dR][dW][dA][dR][dR][dL][dA][dF][dA][dF][dR][dR]-NH2)
- MIC in Broth Dilution, S. Aureus, RBC − (S. aureus): 5.7 µM (≈ 10 µg/mL)
- MIC, S. aureus, No RBC (S. aureus): 5.7 µM (≈ 10 µg/mL)
- MIC in Broth Dilution, S. Aureus, RBC + (S. aureus): 6.3 µM
- MIC, S. aureus, 10^9 cells/ml RBC (S. aureus): 6.3 μM
- MIC, E. coli, No RBC (E. coli): 1.0 µM (≈ 1.76 µg/mL)
- MIC, E. coli, 10^9 cells/ml RBC (E. coli): 0.8 μM
- MIC, K. pneumoniae, 10^9 cells/ml RBC (K. pneumoniae): 3.8 μM
- Hemolysis at 100 μM (human RBCs): 0.06
- EC50 [2]: 110 µM
